Key:
[1] = In vitro release study of payloads from hydrogel; type: physicochemical; settings: sink conditions, PBS or media
Procedure: To determine the release kinetics of each payload from the hydrogel, a hydrogel loaded with fluorescently tagged anti-PD-1, fluorescently tagged IL-15sa, lenalidomide, celecoxib, fluorescently tagged 2′3′-cGAMP, or R848 was immersed in 3 mL pH 7.4 phosphate buffered saline (PBS). At each time point, 1 mL of media was taken out and the same amount of fresh buffer was added back. The amount of payload that had been released was then measured using a fluorescence plate reader or via HPLC.
Hydrogels were prepared according to the general procedure in Example 1. They contained either one or all of the payloads indicated. Fluorescent dyes were conjugated to the proteins to facilitate the measurement of protein release kinetics. The hydrogels were immersed in 3 mL of buffer (either PBS only, PBS with Tween80 (0.2% v/v), or RPMI with 10% FBS) and incubated at 37° C. with stirring.
At the indicated sampling time points, 1 mL of buffer was recovered for measurement and was replaced by an equivalent volume of fresh buffer. The aliquots were measured using a fluorescence plate reader to determine protein concentration. Aliquots were also assessed by HPLC to determine small molecule concentration.

[2] = In vivo release study (fluorescence IVIS imaging); set-up: species or system non-tumor-bearing mice; settings: each time point: first 24 hours (2′3′-cGAMP), first week (IL-15sa)
Description: To evaluate the in vivo release profiles of Cy7 carboxylic acid (a model compound for R848), anti-PD-1, IL-15sa, and 2′3′-cGAMP, hydrogels containing the fluorophore or one of the fluorescently labeled payloads were surgically implanted into non-tumor-bearing mice.
The loading and release properties of the hydrogel were examined in additional experiments. […] It was then confirmed that the hydrogel extends the release of the small molecules and biologics in vivo. Cy7 carboxylic acid (Cy7-CA) was used as a model small molecule payload, as its physical properties are very similar to those of resiquimod (R848). Cy7-CA was administered to non-tumor-bearing mice, either in solution or loaded in a scaffold placed by the fourth mammary fat pad. The mice were assessed by fluorescence IVIS imaging (FIG. 37B), and the data were quantified (FIG. 37C). Whereas a loss of ˜60% of the signal was detected within two hours of administration of the fluorophore in solution, this amount of signal decay required 24 hours for the fluorophore loaded in the hydrogel. Over this time course, there was a […] for the latter group, on average.
To confirm that the hydrogel sustains the release of the small molecule and biologics in vivo, fluorescently labeled versions of 2 ? […]

[3] = test system: 4T1-Luc2 syngeneic breast cancer cells; settings: hydrogel with IL-15sa and anti-PD-1 (devices 1, 14-16)
Procedure: Seven-week-old female Balb/c mice were inoculated orthotopically with 100,000 4T1-Luc2 syngeneic breast cancer cells (into the fourth mammary fat pad). After 10 days, the mice were anesthetized, tumors were surgically resected, and compositions were placed in the resection site. […] The order of surgeries avoided systematic error by dividing up the groups. Standard follow-up care (wound clips, analgesic) was provided.
For the metastatic breast cancer model, 10^5 4T1-Luc2 or 4T1 cells (in 30 μl DPBS) were inoculated orthotopically into the fourth mammary pad of mice to generate a local tumor mass. Cells were injected without any incision to expose the fat pad. Mice were randomly assigned to treatment groups, and surgery was performed 10 days after tumor inoculation. For the metastatic melanoma and lung cancer models, 10^6B16-BL6 or 5×10^5 LLC cells (in 100 μl DPBS) were inoculated subcutaneously in mice to generate a local tumor mass. Mice were randomly assigned to treatment groups, and surgery was performed when tumor volumes reached ˜600 mm^3. While mice were kept under anesthesia at 2% isoflurane, the tumor was resected, and the hydrogel was placed in the site of the resultant cavity at the time of surgery. The wound was closed with medical clips. Control experiments were performed in which therapy was administered in solution at the site of surgery, intraperitoneally, or intravenously. For tumor re-challenge experiments, 10^4 4T1-Luc2 cells were inoculated in the contralateral fourth mammary fat pad. The surgeries were performed independently at least three times, and the surgeon was often blinded.
After surgery, mice were inspected weekly for tumor recurrence and distal metastasis by bioluminescence imaging (BLI). To this end, 10 min after intraperitoneal injection of D-luciferin (150 mg/kg), a substrate of Luc2, the mice were anesthetized with 2% isoflurane and imaged using an IVIS Spectrum In Vivo Imaging System (Perkin Elmer).
A series of compositions described above in Table 2 were evaluated in viva. In each group of evaluations, seven-week-old female Balb/c mice were inoculated orthotopically with 100,000 4T1-Luc2 syngeneic breast cancer cells (into the fourth mammary fat pad). After 10 days, mice were anesthetized, tumors were surgically resected, and the composition was placed in the resection site. Tumor relapse and metastasis were monitored via imaging over the course of 6 weeks.
Female BALB/cJ mice were inoculated orthotopically with 4T1-Luc2 breast cancer cells in their fourth mammary fat pad. Nine days later, the mice were imaged by bioluminescent IVIS imaging to confirm that the size of the tumors was consistent across animals to enable randomization into groups. On day 10 post-tumor inoculation, tumors (˜100 mm^3) were resected, and device 1 was placed in the tumor resection site. Controls included no treatment (sham), empty hydrogel (device 8/hydrogel 4), or delivery of the triple combination in solution (S+I+P)—via intraperitoneal injection, intravenous injection, or local administration.

2′3′-cGAMP
in vitro release kinetics (time scale) [1]: hours for the small molecule | percentage remaining locally, hydrogel relative to free compound [2]: nearly twice | survival benefit as innate immune activator component [3]: conferred greater survival benefit than the Toll-like receptor (TLR) 7/8 agonist R848

Source: patent US10413612B2, “Method of treating cancer with a biomaterial and a toll-like receptor agonist” (Dana-Farber Cancer Institute, Inc., priority 2016, dated 2019)
